Earlier results as cited in patent US5393873A, “Peptides with anticoagulant activity” (BASF Aktiengesellschaft, priority 1991, dated 1995).

Molecular target: thrombin (Homo sapiens, UniProt P00734)

In the case of “Val-Val-Tyr-Thr-Asp-Cys-Thr-Glu-Ser-Gly-Gln-Asn-Leu-Cys-Leu-Cys-Glu-Gly-Ser-Asn-Val-Cys-Gly-Gln-Gly-Asn-Lys-Cys-Ile-Leu-Gly-Ser-Asp-Gly-Glu-Lys-Asn-Gly-Cys-Val-Thr-Gly-Glu-Gly-Thr-Pro-Lys-Pro-Gln-Ser-His-Asn-Asp-Gly-Asp-Phe-Glu-Glu-Ile-Pro-Glu-Glu-Tyr(SO3 H)-Leu-Gln [Hirudin]”, the binding to thrombin is given as “very strongly”.
